Data published in ChEMBL document CHEMBL5338791, “Discovery of Novel 1,3-Diphenylpyrazine Derivatives as Potent S-Phase Kinase-Associated Protein 2 (Skp2) Inhibitors for the Treatment of Cancer” (J Med Chem, 2023).
In brackets after ≈: the same amount, converted by molar mass. Activity calls are given as the source filed them. No cut-off for these calls is given here.

Tests used:
PC-3 [1] = assay: Induction of cell cycle arrest in human PC-3 cells assessed as accumulation of cells at S phase at 10 uM incubated for 6 hrs by flow cytometry (reference value: 19.7 %); format: functional
MGC-803 [2] = assay: Induction of cell cycle arrest in human MGC-803 cells assessed as accumulation of cells at S phase at 10 uM incubated for 12 hrs by flow cytometry (reference value: 20.41 %); format: functional
PC-3 [3] = assay: Induction of cell cycle arrest in human PC-3 cells assessed as accumulation of cells at S phase at 10 uM incubated for 12 hrs by flow cytometry (reference value: 19.7 %); format: functional
MGC-803 [4] = assay: Induction of cell cycle arrest in human MGC-803 cells assessed as accumulation of cells at G2 phase at 10 uM incubated for 48 hrs by flow cytometry (reference value: 20.64 %); format: functional
PC-3 [5] = assay: Induction of apoptosis in human PC-3 cells assessed as early apoptotic cells at 2.5 uM incubated for 48 hrs by annexin V-FITC/PI staining based flow cytometry (reference value: 0.85 %); format: functional
MCF7 = assay: Antitumor activity against human MCF7 cells assessed as cell growth inhibition incubated for 72 hrs by MTT assay; format: functional, cell-based; conditions: MCF7, 72 h
MGC-803 [6] = assay: Induction of apoptosis in human MGC-803 cells assessed as late apoptotic cells at 5 uM incubated for 48 hrs by annexin V-FITC/PI staining based flow cytometry (reference value: 0.95 %); format: functional
[7] = Toxicity in NOD-SCID mouse model xenografted with human MGC-803 cells assessed as change in heart histology at 10 to 50 mg/kg, IG administered once every 2 days for 21 days by H and E staining based analysis; format: organism-based; conditions: in vivo, po, 504 h, dose 10-50 mg/kg, time 21 day
PC-3 [8] = assay: Antitumor activity against human PC-3 cells xenografted in NOD-SCID mouse model assessed as tumor growth inhibition at 10 mg/kg, IG administered once every 2 days for 21 days relative to control; format: functional; conditions: PC-3, po, 504 h, time 21 day, read-out: TGI
[9] = Clearance in plasma of NOD-SCID mouse model xenografted with human PC-3 cells at 25 mg/kg, IG measured upto 48 hrs by LC-MS/MS analysis; format: ADME, organism-based; conditions: po
PC-3 [10] = assay: Induction of apoptosis in human PC-3 cells assessed as early apoptotic cells at 10 uM incubated for 48 hrs by annexin V-FITC/PI staining based flow cytometry (reference value: 0.85 %); format: functional
[11] = Apparent volume of distribution in tumor of NOD-SCID mouse model xenografted with human PC-3 cells at 25 mg/kg, IG measured upto 48 hrs by LC-MS/MS analysis; format: ADME, organism-based, Neoplasm; conditions: in vivo, po
[12] = AUClast in plasma of NOD-SCID mouse model xenografted with human PC-3 cells at 25 mg/kg, IG measured upto 48 hrs by LC-MS/MS analysis; format: ADME, organism-based; set-up: dose 25 mg/kg, time < 48 hrs, route ig; conditions: po
[13] = Toxicity in NOD-SCID mouse model xenografted with human MGC-803 cells assessed as change in lung histology at 10 to 50 mg/kg, IG administered once every 2 days for 21 days by H and E staining based analysis; format: organism-based; conditions: in vivo, po, 504 h, dose 10-50 mg/kg, time 21 day
PC-3 [14] = assay: Induction of apoptosis in human PC-3 cells assessed as viable cells at 5 uM incubated for 48 hrs by annexin V-FITC/PI staining based flow cytometry (reference value: 98.6 %); format: functional; conditions: read-out: Activity
MGC-803 [15] = assay: Induction of cell cycle arrest in human MGC-803 cells assessed as accumulation of cells at G2 phase at 10 uM incubated for 12 hrs by flow cytometry (reference value: 20.64 %); format: functional
MGC-803 [16] = assay: Induction of cell cycle arrest in human MGC-803 cells assessed as accumulation of cells at S phase at 10 uM incubated for 36 hrs by flow cytometry (reference value: 20.41 %); format: functional
PC-3 [17] = assay: Induction of cell cycle arrest in human PC-3 cells assessed as accumulation of cells at G1 phase at 10 uM incubated for 6 hrs by flow cytometry (reference value: 56.81 %); format: functional
MGC-803 [18] = assay: Induction of cell cycle arrest in human MGC-803 cells assessed as accumulation of cells at G1 phase at 10 uM incubated for 12 hrs by flow cytometry (reference value: 57.09 %); format: functional
MGC-803 [19] = assay: Induction of cell cycle arrest in human MGC-803 cells assessed as accumulation of cells at S phase at 10 uM incubated for 24 hrs by flow cytometry (reference value: 20.41 %); format: functional
PC-3 [20] = assay: Upregulation of p27 level in human PC-3 cells at 10 uM incubated upto 48 hrs by Western blot analysis; format: functional, cell-based
[21] = Solubility in cell culture medium by HPLC analysis; format: physicochemical
PC-3 [22] = assay: Induction of apoptosis in human PC-3 cells assessed as early apoptotic cells at 5 uM incubated for 48 hrs by annexin V-FITC/PI staining based flow cytometry (reference value: 0.85 %); format: functional
PC-3 [23] = assay: Induction of cell cycle arrest in human PC-3 cells assessed as accumulation of cells at G2 phase at 2.5 uM incubated for 48 hrs by flow cytometry (reference value: 22.59 %); format: functional
PC-3 [24] = assay: Induction of cell cycle arrest in human PC-3 cells assessed as accumulation of cells at G2 phase at 10 uM incubated for 12 hrs by flow cytometry (reference value: 19.34 %); format: functional
MGC-803 [25] = assay: Induction of apoptosis in human MGC-803 cells assessed as necrotic cells at 10 uM incubated for 48 hrs by annexin V-FITC/PI staining based flow cytometry (reference value: 0.89 %); format: functional
[26] = target: S-phase kinase-associated protein 2 (Homo sapiens, UniProt Q13309); assay: Inhibition of Skp2 in human PC-3 cells treated with shRNA 5'-GGACCTATCGAACTCAGTTAT-3' incubated upto 48 hrs by Western blot analysis (reference value: 4.8 +/- 0.5 microM); format: cell-based
Sequence of S-phase kinase-associated protein 2 (Q13309 whole entry): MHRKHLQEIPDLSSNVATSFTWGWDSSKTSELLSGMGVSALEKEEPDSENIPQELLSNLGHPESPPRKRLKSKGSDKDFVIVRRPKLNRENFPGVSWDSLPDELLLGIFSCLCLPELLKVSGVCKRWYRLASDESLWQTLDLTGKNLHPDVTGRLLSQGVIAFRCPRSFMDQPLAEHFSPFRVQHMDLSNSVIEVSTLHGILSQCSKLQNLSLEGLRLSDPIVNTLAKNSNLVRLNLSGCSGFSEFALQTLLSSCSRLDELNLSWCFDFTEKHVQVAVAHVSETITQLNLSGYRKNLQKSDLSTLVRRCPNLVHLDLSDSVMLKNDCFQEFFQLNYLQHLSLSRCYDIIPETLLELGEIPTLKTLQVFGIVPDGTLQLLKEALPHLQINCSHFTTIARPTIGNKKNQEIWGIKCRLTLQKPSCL

PC-3 [27] = assay: Antitumor activity against human PC-3 cells xenografted in NOD-SCID mouse model assessed as p21 accumulation at 10 to 50 mg/kg, IG administered once every 2 days for 21 days by Western blot analysis; format: functional, organism-based; conditions: dose 10-50 mg/kg, time 21.0 day
PC-3 [28] = assay: Induction of cell cycle arrest in human PC-3 cells assessed as accumulation of cells at S phase at 10 uM incubated for 36 hrs by flow cytometry (reference value: 19.7 %); format: functional
PC-3 [29] = assay: Induction of cell cycle arrest in human PC-3 cells assessed as accumulation of cells at S phase at 10 uM incubated for 48 hrs by flow cytometry (reference value: 19.7 %); format: functional
MGC-803 [30] = assay: Induction of cell cycle arrest in human MGC-803 cells assessed as accumulation of cells at S phase at 2.5 uM incubated for 48 hrs by flow cytometry (reference value: 22.72 %); format: functional
PC-3 [31] = assay: Induction of cell cycle arrest in human PC-3 cells assessed as accumulation of cells at G2 phase at 5 uM incubated for 48 hrs by flow cytometry (reference value: 22.59 %); format: functional
MGC-803 [32] = assay: Induction of cell cycle arrest in human MGC-803 cells assessed as accumulation of cells at G2 phase at 10 uM incubated for 36 hrs by flow cytometry (reference value: 20.64 %); format: functional
PC-3 [33] = assay: Induction of apoptosis in human PC-3 cells assessed as cell shrinkage incubated for 48 hrs; format: functional, cell-based; conditions: dose <= 10.0 µM

## O=C(CCl)NC1CCN(c2cnc(-c3ccccc3)c(-c3ccccc3)n2)CC1
PC-3 [1]
  Activity: 28.11%
MGC-803 [2]
  Activity: 31.88%
PC-3 [3]
  Activity: 32.51%
MGC-803 [4]
  Activity: 21.86%
PC-3 [5]
  Activity: 0.96%
MCF7
  IC50: 4.4 µM
MGC-803 [6]
  Activity: 12.3%
[7]
  Activity: Non-Toxic
PC-3 [8]
  inhibition in vivo at 10 mg/kg: 55.7%
[9]
  CL/F: 118 mL/min/kg
PC-3 [10]
  Activity: 0.2%
[11]
  Vz: 170.8 L/kg
[12]
  AUC(0-t) at 48 h: 3230 ng·h/mL
[13]
  Activity: Non-Toxic
PC-3 [14]
  viability at 5 µM: 82.5%
MGC-803 [15]
  Activity: 18.63%
MGC-803 [16]
  Activity: 42.29%
PC-3 [17]
  Activity: 46.91%
MGC-803 [18]
  Activity: 46.55%
MGC-803 [19]
  Activity: 35.4%
PC-3 [20]
  Activity: Active
[21]
  solubility: 3.26 µg/mL (≈ 8.01 µM)
PC-3 [22]
  Activity: 0.33%
PC-3 [23]
  Activity: 18.47%
PC-3 [24]
  Activity: 21.89%
MGC-803 [25]
  Activity: 4.73%
[26]
  IC50: 38.5 µM
PC-3 [27]
  Activity: Active
PC-3 [28]
  Activity: 45.23%
PC-3 [29]
  Activity: 44.19%
MGC-803 [30]
  Activity: 26.89%
PC-3 [31]
  Activity: 16.41%
MGC-803 [32]
  Activity: 19.76%
PC-3 [33]
  Activity: Dose-Dependent Effect
